Assay results: patent US20090311217A1, “3-SUBSTITUTED-1H-INDOLE COMPOUNDS, THEIR USE AS MTOR KINASE AND PI3 KINASE INHIBITORS, AND THEIR SYNTHESES” (priority 2008, published 2009)
Read-outs that look alike come from different tables or passages of the source.

How the values were obtained:
Assay type in all cases: biochemical
PI3K-alpha = PI3K-alpha (Homo sapiens, UniProt P42336); experiment: PI3K-alpha fluorescence polarization assay
PI3K-beta = PI3K-beta (Homo sapiens, UniProt P42338); experiment: PI3K-beta fluorescence polarization assay; details: read-out: PI3Kβ Avg. IC50
Method: PI3K-Alpha, PI3K-Beta, PI3K-Gamma, and PI3K-delta Fluorescence Polarization Assay Protocols
PI3-Kinase reactions were performed in 5 mM HEPES, pH 7, 2.5 mM MgCl2, and 25 μM ATP, with diC8-PI(4,5)P2 (Echelon, Salt Lake City Utah) as substrate. Nunc 384-well black polypropylene fluorescent plates were used for PI3K assays. Reactions were quenched by the addition of EDTA to a final concentration of 10 mM. Final reaction volumes were 10 μl. For evaluation of PI3K inhibitors, 5 ng of enzyme (PI3K-alpha, beta, gamma, or delta) and 2.5 μM of substrate was used per […] reaction volume, and inhibitor concentrations ranged from 100 μM to 20 μM; the final level of DMSO in reactions never exceeded 2%. Reactions were allowed to proceed for one hour at 25° C. After 1 hour, GST-tagged GRP1 (general receptor for phosphoinositides) PH domain fusion protein was added to a final concentration of 100 nM, and BODIPY-TMRI(1,3,4,5)P4 (Echelon) was also added to a final concentration of 5 nM. Final sample volumes were 25 μl with a final DMSO concentration of 0.8%. Assay Plates were read on Perkin-Elmer Envision plate readers with appropriate filters for Tamra [BODIPY-TMRI(1,3,4,5)P4]. Data obtained were used to calculate enzymatic activity and enzyme inhibition by inhibitor compounds.

PI3K-gamma = PI3K-gamma (Homo sapiens, UniProt P48736); experiment: PI3K-gamma fluorescence polarization assay; details: PI3Kγ Avg. IC50
Summary of the method: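 Enzyme 5 ng; substrate diC8-PI(4,5)P2 2.5 μM; ATP 25 μM; 5 mM HEPES pH 7, 2.5 mM MgCl2; DMSO ≤2%; 1 h, 25° C. Quench 10 mM EDTA. Detect with GRP1 PH domain 100 nM + TMR-IP4 probe 5 nM by polarization.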

PI3K-delta = PI3K-delta (Homo sapiens, UniProt O00329); experiment: PI3K-delta fluorescence polarization assay; details: read-out: PI3Kδ Avg. IC50
human TOR = biological target: T1, human TOR (Homo sapiens, UniProt P42345); experiment: mTOR enzyme assay (DELFIA, His6-S6K substrate)
T1 construct: FLAG

[1] = read-out: mTOR Kinase Avg. IC50

Chain of PI3K-delta (O00329 whole entry, species assumed): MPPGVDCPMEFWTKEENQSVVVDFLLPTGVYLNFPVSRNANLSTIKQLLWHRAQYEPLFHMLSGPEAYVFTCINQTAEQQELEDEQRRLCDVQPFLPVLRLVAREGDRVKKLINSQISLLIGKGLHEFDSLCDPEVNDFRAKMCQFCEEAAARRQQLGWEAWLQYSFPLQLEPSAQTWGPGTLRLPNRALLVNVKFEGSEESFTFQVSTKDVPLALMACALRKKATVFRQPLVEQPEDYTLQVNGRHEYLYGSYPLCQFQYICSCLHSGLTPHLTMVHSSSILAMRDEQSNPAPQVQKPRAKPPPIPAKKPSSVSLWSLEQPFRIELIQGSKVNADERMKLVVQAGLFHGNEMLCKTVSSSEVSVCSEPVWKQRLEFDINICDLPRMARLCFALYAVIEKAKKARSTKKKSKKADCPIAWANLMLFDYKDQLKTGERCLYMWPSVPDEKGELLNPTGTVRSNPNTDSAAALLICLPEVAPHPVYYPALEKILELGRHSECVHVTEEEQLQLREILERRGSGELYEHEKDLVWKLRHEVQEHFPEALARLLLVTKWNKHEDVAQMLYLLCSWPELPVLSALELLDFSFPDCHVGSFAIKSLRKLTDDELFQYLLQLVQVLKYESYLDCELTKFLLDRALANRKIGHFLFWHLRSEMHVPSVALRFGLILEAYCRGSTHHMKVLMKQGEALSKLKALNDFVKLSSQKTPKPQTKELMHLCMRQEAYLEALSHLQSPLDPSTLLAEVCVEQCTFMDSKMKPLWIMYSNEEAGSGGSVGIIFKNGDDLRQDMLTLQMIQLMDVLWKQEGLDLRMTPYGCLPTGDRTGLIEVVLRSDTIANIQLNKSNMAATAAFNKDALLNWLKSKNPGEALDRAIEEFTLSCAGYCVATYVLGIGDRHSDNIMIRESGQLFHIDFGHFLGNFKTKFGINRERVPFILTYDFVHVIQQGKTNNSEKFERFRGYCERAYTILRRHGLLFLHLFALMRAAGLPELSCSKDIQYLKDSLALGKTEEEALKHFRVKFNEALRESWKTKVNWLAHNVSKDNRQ
Chain of PI3K-delta (P27986 whole entry partner, species assumed): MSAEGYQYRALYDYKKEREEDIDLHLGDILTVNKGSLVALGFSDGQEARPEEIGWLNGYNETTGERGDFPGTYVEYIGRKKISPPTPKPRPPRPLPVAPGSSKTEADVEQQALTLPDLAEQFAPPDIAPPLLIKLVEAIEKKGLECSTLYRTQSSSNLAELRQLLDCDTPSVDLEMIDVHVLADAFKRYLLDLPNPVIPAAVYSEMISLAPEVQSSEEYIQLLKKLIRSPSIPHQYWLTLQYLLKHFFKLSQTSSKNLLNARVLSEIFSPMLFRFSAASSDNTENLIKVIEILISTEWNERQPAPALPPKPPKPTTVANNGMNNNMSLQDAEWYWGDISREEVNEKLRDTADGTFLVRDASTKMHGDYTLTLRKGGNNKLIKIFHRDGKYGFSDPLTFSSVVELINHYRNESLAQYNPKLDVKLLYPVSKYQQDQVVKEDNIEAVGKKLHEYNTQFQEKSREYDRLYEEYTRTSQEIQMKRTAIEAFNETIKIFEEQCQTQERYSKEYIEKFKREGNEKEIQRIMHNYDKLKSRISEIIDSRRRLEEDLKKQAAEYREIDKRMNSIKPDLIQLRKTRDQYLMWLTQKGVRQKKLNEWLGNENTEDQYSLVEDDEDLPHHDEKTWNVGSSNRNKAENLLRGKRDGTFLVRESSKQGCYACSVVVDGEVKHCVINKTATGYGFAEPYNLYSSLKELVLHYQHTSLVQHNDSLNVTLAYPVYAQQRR
Chain of PI3K-beta (P42338 whole entry, species assumed): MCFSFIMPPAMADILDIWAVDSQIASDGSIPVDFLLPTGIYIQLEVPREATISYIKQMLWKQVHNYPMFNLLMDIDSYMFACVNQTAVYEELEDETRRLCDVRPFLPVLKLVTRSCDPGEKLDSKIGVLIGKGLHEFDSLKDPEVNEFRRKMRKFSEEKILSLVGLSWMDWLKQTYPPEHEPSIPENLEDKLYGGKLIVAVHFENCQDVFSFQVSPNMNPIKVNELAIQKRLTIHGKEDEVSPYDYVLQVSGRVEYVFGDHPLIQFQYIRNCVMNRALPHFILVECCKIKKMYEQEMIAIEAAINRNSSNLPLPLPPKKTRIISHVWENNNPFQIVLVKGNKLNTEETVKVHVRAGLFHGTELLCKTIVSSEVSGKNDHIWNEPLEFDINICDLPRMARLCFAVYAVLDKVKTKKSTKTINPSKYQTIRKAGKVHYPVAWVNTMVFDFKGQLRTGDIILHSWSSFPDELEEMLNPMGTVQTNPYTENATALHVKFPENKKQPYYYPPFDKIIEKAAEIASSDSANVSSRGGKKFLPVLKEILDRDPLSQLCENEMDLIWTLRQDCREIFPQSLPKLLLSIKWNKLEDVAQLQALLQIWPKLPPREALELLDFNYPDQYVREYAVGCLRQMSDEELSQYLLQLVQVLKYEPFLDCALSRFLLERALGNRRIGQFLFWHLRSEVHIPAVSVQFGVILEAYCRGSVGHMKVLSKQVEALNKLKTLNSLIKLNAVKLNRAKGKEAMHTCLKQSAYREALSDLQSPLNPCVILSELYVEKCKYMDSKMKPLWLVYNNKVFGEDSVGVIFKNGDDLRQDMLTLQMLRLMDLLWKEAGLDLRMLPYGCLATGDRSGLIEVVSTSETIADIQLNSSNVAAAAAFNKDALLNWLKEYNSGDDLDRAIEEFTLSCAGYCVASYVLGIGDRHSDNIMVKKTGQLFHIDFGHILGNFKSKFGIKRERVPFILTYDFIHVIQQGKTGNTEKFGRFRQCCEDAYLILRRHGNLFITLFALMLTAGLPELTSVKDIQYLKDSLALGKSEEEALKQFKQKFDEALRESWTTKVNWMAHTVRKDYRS
Chain of PI3K-beta (P27986 whole entry partner, species assumed): as the sequence (P27986 whole entry partner, species assumed) above
Chain of PI3K-gamma (P48736 whole entry, species assumed, the tested form may be a part): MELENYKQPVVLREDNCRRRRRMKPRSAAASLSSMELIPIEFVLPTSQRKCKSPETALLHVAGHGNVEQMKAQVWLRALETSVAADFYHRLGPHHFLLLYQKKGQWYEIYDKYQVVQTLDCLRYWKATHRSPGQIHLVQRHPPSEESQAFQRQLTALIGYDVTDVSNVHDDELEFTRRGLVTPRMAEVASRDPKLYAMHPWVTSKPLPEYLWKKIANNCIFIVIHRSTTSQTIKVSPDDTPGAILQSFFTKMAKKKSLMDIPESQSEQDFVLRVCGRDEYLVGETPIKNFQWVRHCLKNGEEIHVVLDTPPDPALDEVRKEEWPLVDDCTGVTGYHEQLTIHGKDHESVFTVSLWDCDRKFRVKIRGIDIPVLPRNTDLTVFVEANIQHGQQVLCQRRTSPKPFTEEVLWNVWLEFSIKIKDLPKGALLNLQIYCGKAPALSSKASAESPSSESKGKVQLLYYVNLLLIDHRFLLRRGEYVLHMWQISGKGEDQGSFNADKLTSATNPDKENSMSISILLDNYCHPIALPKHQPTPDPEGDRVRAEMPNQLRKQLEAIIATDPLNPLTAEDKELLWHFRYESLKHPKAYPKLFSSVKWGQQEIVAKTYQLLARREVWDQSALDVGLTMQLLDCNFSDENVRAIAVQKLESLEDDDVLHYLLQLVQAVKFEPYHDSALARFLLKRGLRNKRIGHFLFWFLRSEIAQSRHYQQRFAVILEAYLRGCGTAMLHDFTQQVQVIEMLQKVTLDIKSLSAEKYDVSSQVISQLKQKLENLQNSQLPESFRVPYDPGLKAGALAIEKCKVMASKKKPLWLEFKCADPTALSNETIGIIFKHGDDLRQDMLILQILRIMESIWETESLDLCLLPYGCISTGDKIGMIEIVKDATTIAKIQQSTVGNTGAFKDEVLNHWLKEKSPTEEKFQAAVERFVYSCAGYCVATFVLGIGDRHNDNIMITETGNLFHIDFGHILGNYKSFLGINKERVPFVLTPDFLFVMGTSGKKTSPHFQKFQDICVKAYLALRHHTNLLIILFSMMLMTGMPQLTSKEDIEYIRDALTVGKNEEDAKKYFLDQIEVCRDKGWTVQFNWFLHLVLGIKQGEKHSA
Chain of PI3K-alpha (P42336 whole entry, species assumed): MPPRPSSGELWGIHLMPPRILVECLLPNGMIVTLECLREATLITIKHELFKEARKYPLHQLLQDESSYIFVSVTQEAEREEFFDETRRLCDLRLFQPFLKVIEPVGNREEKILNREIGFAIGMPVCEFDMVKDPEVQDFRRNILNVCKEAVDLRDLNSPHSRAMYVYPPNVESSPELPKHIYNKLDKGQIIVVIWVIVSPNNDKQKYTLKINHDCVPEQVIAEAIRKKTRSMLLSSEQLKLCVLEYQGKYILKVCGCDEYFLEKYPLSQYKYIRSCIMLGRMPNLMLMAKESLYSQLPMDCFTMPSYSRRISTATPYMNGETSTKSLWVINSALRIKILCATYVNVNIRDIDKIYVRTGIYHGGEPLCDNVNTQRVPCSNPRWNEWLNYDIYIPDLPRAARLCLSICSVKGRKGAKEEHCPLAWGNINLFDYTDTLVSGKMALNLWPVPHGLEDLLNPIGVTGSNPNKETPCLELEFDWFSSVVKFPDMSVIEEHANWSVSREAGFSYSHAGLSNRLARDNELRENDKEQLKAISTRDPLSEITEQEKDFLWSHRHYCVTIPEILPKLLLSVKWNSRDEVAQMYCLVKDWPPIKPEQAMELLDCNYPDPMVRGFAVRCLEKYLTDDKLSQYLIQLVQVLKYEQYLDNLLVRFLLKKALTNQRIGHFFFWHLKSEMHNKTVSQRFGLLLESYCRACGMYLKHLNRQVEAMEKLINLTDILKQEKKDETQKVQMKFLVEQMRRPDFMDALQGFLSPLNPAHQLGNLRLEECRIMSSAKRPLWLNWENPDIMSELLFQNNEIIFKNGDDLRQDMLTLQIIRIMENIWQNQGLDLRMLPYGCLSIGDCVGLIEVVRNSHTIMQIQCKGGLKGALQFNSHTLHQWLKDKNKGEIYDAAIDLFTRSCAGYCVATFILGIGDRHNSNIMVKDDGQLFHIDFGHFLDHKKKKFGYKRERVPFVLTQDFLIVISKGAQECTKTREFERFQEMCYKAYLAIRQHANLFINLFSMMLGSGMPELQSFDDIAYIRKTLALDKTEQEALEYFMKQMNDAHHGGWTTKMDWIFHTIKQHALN
Chain of PI3K-alpha (P27986 whole entry partner, species assumed): as the sequence (P27986 whole entry partner, species assumed) above

IC50 (PI3K-alpha; read-out: PI3Kα Avg. IC50)	IC50 (PI3K-beta)	IC50 (PI3K-gamma)	IC50 (PI3K-delta)	IC50 (human TOR; [1])	Compound	IC50 (PI3K-alpha; PI3Kα Avg. IC50)	IC50 (human TOR; mTOR Kinase Avg. IC50)
5 nM	13.3 nM	22 nM	7.8 nM	< 21 nM	COc1ccc2c(c1)c(/C=C1\Oc3cc(O)cc(O)c3C1=O)c(C(F)(F)F)n2CCO [Example 332, (2Z)-4,6-Dihydroxy-2-{[1-(2-hydroxyethyl)-5-methoxy-2-(trifluoromethyl)-1H-indol-3-yl]methylene}-1-benzofuran-3(2H)-one]	–	–
36.3 nM	169 nM	976 nM	21.5 nM	215 nM	COc1ccc2c(c1)c(C=C1Oc3cc(O)cc(O)c3C1=O)cn2CCN1CCN(CCO)CC1 [Example 111, 4,6-dihydroxy-2-[(1-{2-[4-(2-hydroxyethyl)piperazin-1-yl]ethyl}-5-methoxy-1H-indol-3-yl)methylene]-1-benzofuran-3(2H)-one]	–	–
6.1 nM	7.7 nM	55 nM	3 nM	77 nM	COc1ccc2[nH]c(CN3CCN(C)CC3)c(/C=C3\Oc4cc(O)cc(O)c4C3=O)c2c1 [Example 346, (2Z)-4,6-Dihydroxy-2-({5-methoxy-2-[(4-methylpiperazin-1-yl)methyl]-1H-indol-3-yl}methylene)-1-benzofuran-3(2H)-one]	–	–
4 nM	4.1 nM	61.7 nM	1 nM	< 22 nM	COc1ccc2c(c1)c(/C=C1\Oc3cc(O)cc(O)c3C1=O)c(C(F)(F)F)n2CCN1CCN(C)CC1 [Example 336, (2Z)-4,6-Dihydroxy-2-({5-methoxy-1-[2-(4-methylpiperazin-1-yl)ethyl]-2-(trifluoromethyl)-1H-indol-3-yl}methylene)-1-benzofuran-3(2H)-one]	–	–
17 nM	64 nM	92.5 nM	8.5 nM	77.5 nM	COc1ccc2c(c1)c(/C=C1\Oc3cc(O)cc(O)c3C1=O)cn2CCO [Example 317, (2Z)-4,6-Dihydroxy-2-{[1-(2-hydroxyethyl)-5-methoxy-1H-indol-3-yl]methylene}-1-benzofuran-3(2H)-one]	–	–
54 nM	128 nM	65 nM	17 nM	62 nM	COc1ccc2[nH]c(-c3ccccc3)c(/C=C3\Oc4cccc(O)c4C3=O)c2c1 [Example 304, (2Z)-4-Hydroxy-2-[(5-methoxy-2-phenyl-1H-indol-3-yl)methylene]-1-benzofuran-3(2H)-one]	–	–
22 nM	57.7 nM	666 nM	3 nM	> 160 nM	COc1ccc2c(c1)c(/C=C1\Oc3cc(O)cc(C)c3C1=O)c(C)n2CCN1CCN(C)CC1 [Example 338, (2Z)-6-Hydroxy-2-({5-methoxy-2-methyl-1-[2-(4-methylpiperazin-1-yl)ethyl]-1H-indol-3-yl}methylene)-4-methyl-1-benzofuran-3(2H)-one]	–	–
3 nM	22 nM	36.5 nM	0.8 nM	12.8 nM	COc1ccc2c(c1)c(/C=C1\Oc3cc(O)cc(O)c3C1=O)c(C)n2CCN1CCC(O)CC1 [Example 320, (2Z)-4,6-Dihydroxy-2-({1-[2-(4-hydroxypiperidin-1-yl)ethyl]-5-methoxy-2-methyl-1H-indol-3-yl}methylene)-1-benzofuran-3(2H)-one]	–	–
5.3 nM	17.5 nM	404 nM	2 nM	117 nM	COc1ccc2c(c1)c(C=C1Oc3cc(O)cc(O)c3C1=O)c(C)n2CCCN(C)C [Example 106, 2-({1-[3-(dimethylamino)propyl]-5-methoxy-2-methyl-1H-indol-3-yl}methylene)-4,6-dihydroxy-1-benzofuran-3(2H)-one]	–	–
18.5 nM	72.5 nM	1820 nM	2.5 nM	3700 nM	COc1ccc2c(c1)c(/C=C1\Oc3cc(O)ccc3C1=O)c(C)n2CCCN(C)C [Example 307, (2Z)-2-({1-[3-(Dimethylamino)propyl]-5-methoxy-2-methyl-1H-indol-3-yl}methylene)-6-hydroxy-1-benzofuran-3(2H)-one]	–	–
4.3 nM	18 nM	321 nM	2.8 nM	< 23 nM	COc1ccc2c(c1)c(C=C1Oc3cc(O)cc(O)c3C1=O)c(C)n2CCN1CCN(CCO)CC1 [Example 109, 4,6-dihydroxy-2-[(1-{2-[4-(2-hydroxyethyl)piperazin-1-yl]ethyl}-5-methoxy-2-methyl-1H-indol-3-yl)methylene]-1-benzofuran-3(2H)-one]	–	–
10.5 nM	8 nM	329 nM	1.5 nM	210 nM	COc1ccc2c(c1)c(/C=C1\Oc3cc(O)ccc3C1=O)c(C1CC1)n2CCN1CCN(C)CC1 [Example 362, (2Z)-2-({2-Cyclopropyl-5-methoxy-1-[2-(4-methylpiperazin-1-yl)ethyl]-1H-indol-3-yl}methylene)-6-hydroxy-1-benzofuran-3(2H)-one]	–	–
2 nM	7.5 nM	3 nM	1.6 nM	< 0.82 nM	COc1ccc2c(c1)c(/C=C1\Oc3cc(O)cc(O)c3C1=O)c(C1CC1)n2CCn1cccn1 [Example 340, (2Z)-2-({2-Cyclopropyl-5-methoxy-1-[2-(1H-pyrazol-1-yl)ethyl]-1H-indol-3-yl}methylene)-4,6-dihydroxy-1-benzofuran-3(2H)-one]	–	–
28 nM	46 nM	180 nM	59 nM	1700 nM	COC(=O)c1ccc2[nH]cc(C=C3Oc4cc(O)cc(O)c4C3=O)c2c1 [Example 166, methyl 3-[(4,6-dihydroxy-3-oxo-1-benzofuran-2(3H)-ylidene)methyl]-1H-indole-5-carboxylate]	–	–
2240 nM	671 nM	5860 nM	1020 nM	> 5000 nM	Cc1c(C=C2Oc3cc(O)cc(O)c3C2=O)c2ccccc2n1CCCCCl [Example 94, 2-{[1-(4-chlorobutyl)-2-methyl-1H-indol-3-yl]methylene}-4,6-dihydroxy-1-benzofuran-3(2H)-one]	–	–
7.5 nM	95.5 nM	239 nM	< 1 nM	> 800 nM	COc1ccc2c(c1)c(/C=C1\Oc3cc(O)ccc3C1=O)c(C)n2CCCN1CCCCCC1 [Example 358, (2Z)-2-{[1-(3-Azepan-1-ylpropyl)-5-methoxy-2-methyl-1H-indol-3-yl]methylene}-6-hydroxy-1-benzofuran-3(2H)-one]	–	–
< 2.7 nM	25 nM	278 nM	1.5 nM	14.5 nM	COc1ccc2c(c1)c(/C=C1\Oc3cc(O)cc(O)c3C1=O)c(C(=O)N(C)C)n2CCN1CCN(C)CC1 [Example 316, 3-[(Z)-(4,6-Dihydroxy-3-oxo-1-benzofuran-2(3H)-ylidene)methyl]-5-methoxy-N,N-dimethyl-1-[2-(4-methylpiperazin-1-yl)ethyl]-1H-indole-2-carboxamide]	–	–
190 nM	251 nM	1950 nM	108 nM	> 20000 nM	O=C1/C(=C/c2c(-c3ccc(F)cc3)[nH]c3ccccc23)Oc2c1ccc(O)c2O [Example 56, (2Z)-2-{[2-(4-fluorophenyl)-1H-indol-3-yl]methylene}-6,7-dihydroxy-1-benzofuran-3(2H)-one]	–	–
24 nM	100 nM	692 nM	2 nM	> 4000 nM	COc1ccc2c(c1)c(/C=C1\Oc3cc(O)ccc3C1=O)c(C(=O)N(C)C)n2CCCN(C)C [Example 345, 1-[3-(Dimethylamino)propyl]-3-[(Z)-(6-hydroxy-3-oxo-1-benzofuran-2(3H)-ylidene)methyl]-5-methoxy-N,N-dimethyl-1H-indole-2-carboxamide]	–	–

Compound	IC50 (PI3K-alpha; read-out: PI3Kα Avg. IC50)	IC50 (PI3K-beta)	IC50 (PI3K-gamma)	IC50 (PI3K-delta)	IC50 (human TOR; [1])	IC50 (PI3K-alpha; PI3Kα Avg. IC50)	IC50 (human TOR; mTOR Kinase Avg. IC50)
O=C1C(=Cc2c(-c3ccccc3)[nH]c3ccccc23)Oc2cc(O)cc(O)c21 [Example 14, 4,6-dihydroxy-2-[(2-phenyl-1H-indol-3-yl)methylene]-1-benzofuran-3(2H)-one]	–	736 nM	2780 nM	381 nM	130 nM	1030 nM	–
COc1ccc2c(c1)c(C=C1Oc3cc(O)cc(O)c3C1=O)cn2CCCN1CCOCC1 [Example 112, 4,6-dihydroxy-2-{[5-methoxy-1-(3-morpholin-4-ylpropyl)-1H-indol-3-yl]methylene}-1-benzofuran-3(2H)-one]	–	181 nM	646 nM	6 nM	–	42 nM	430 nM
